{"source": "patent US20240189263A1", "about": "“DERIVATIZED C60 MOLECULES AND METHODS AND MATERIALS FOR USING DERIVATIZED C60 MOLECULES TO REDUCE RADIATION INJURY” (Mayo Foundation for Medical Education and Research, priority 2021, published 2024)", "key": {"N2A cells [1]": {"tested_on": "N2A cells", "assay": "ROS by H2-DCFDA probe after proton irradiation, N2A", "type": "cell-based", "conditions": "pretreated 100 μM, TBHP 200 μM, 1 Gy proton, read 30 minutes post radiation", "from_the_text": "Cell lines were irradiated using pencil beam scanning (PBS) proton beams produced by IBA ProteusOne (Ion Beam Applications, Louvain-la-Neuve, Belgium). Single layer mono-energy 227 MeV pencil beams with uniform spacing of 0.25 cm between each spot were used to create a large field size with uniform dose distribution (±2%) that encompassed all sample wells containing the cells. A fixed source to surface distance (SSD) setup and gantry at 180 degrees was used to delivery 0.5, 1, 2, 4, and 6 Gray (Gy) dose of ionizing radiation to cells. The cells were place at an 8 cm depth, with a linear energy transfer (LET) of approximately 1.7 keV/μm, using solid water slabs as a buildup. […] The monitor units needed to deliver the intended dose were calculated using the measure dose/MU values.\nPost radiation, 2′,7′-dichlorodihydrofluorescein diacetate (H2-DCFDA) probes were used to measure the level of reactive oxygen species (ROS) post-proton radiation (1 Gy, 230 MeV proton beam). […] A fluorescence microplate reader (SpectraMax M5, Molecular Devices Corporation, California, USA) was used to detect the generation of fluorescent DCF molecules with an excitation filter of 485 nm and an emission filter of 525 nm, with a 515 nm cutoff filter. […] Following irradiation, the cells were transported back for plate reading, 30 minutes post radiation."}, "[2]": {"tested_on": "HCT116 colorectal cancer cells", "assay": "Clonogenic assay of irradiated HCT116 colorectal cancer cells", "type": "cell-based", "conditions": "HCT116, 100 μM 2 hours, 0-6 Gy", "description": "A clonogenic assay of HCT116 colorectal cancer cells was conducted. 2×10^6 cells were treated with 100 μM C60-ser for 2 hours and exposed to 0-6 Gy of radiation."}, "[3]": {"assay": "SEM analysis of C60-ser aggregates", "type": "physicochemical", "conditions": "frozen and vacuum-dried solutions", "description": "Solutions of C60-ser were frozen with liquid nitrogen and dried under high vacuum while still frozen. FIGS. 3A and 3B show example scanning electron microscopy (SEM) images of aggregates of C60-ser. The aggregates formed when solid C60-ser was dissolved in water or an aqueous salt solution. The aggregates formed within a period of seconds to several hours, after which the system remained in equilibrium."}, "HepG2 cells": {"tested_on": "HepG2 cells", "assay": "Seahorse mitochondrial respiration (oxygen consumption rate), HepG2", "type": "cell-based", "conditions": "HepG2, pretreated 2 hours before 1 Gy 230 MeV proton", "description": "The oxygen consumption rates were assessed in N2A, HUVEC, NIH3T3, and HepG2 cell lines with a Seahorse XFe96 (Agilent Technologies, Santa Clara, CA, USA). Cells were treated with 0 and 1 Gy of 230 MeV proton irradiation. The control plates were run at about the same time post plating. Each cell line was optimized prior to these experiments, and data was presented normalized to cell number plated. The standard mitochondrial stress test was performed using serial injections of oligomycin (1.5 μM), carbonyl cyanide p-(trifluoromethoxy)phenylhydrazone (FCCP, 1 μM), and rotenone/antimycin A mixture (0.5 μM). After injection of oligomycin, which inhibits ATP synthase (complex V), there was a drop in electron flow through the electron transport chain (ETC) and a resultant drop in oxygen consumption rate (OCR) of the cells. Injection of FCCP collapsed the proton gradient and allowed for uninhibited electron flow through the ETC supercomplexes. […] The reserve respiratory capacity was calculated by subtracting the basal respiratory capacity from the maximal respiratory capacity."}, "N2A cells [4]": {"tested_on": "N2A cells", "assay": "DNA damage, γH2AX foci immunofluorescence, N2A", "type": "cell-based", "description": "To test the ability of C60-ser to protect against radiation injury, the level of DNA damage in response to radiation was analyzed by measuring γH2AX. The H2AX protein becomes phosphorylated into γH2AX as a result of DNA double strand breaks. This allows for the visualization and quantification of double strand break foci through immunofluorescence analysis. Cells were plated on 8 chamber slides and incubated overnight before C60-ser treatment. Three sets of slides per cell line (to be irradiated with 0, 0.5, and 1 Gy) were prepared, with the top 4 rows used as a control and the bottom 4 rows incubated with 100 μM C60-ser. Cells were incubated with C60-ser for 2 hours before irradiation with a clinical Proteus One proton machine (Ion Beam Applications, Louvain-la-Neuve, Belgium). A 230 MeV mono-energetic unmodulated broad beam of large field size that encompassed all slides containing the cells was used to deliver the 0.5 and 1 Gy doses. White solid water slabs (IBA Dosimetry, Germany) provided the necessary phantom material to place the cells at the desired 8 cm depth with an LET of approximately 1.7 keV/μm. After irradiation, cells were incubated at 37° C. with 5% CO2 for 30 minutes before washing and fixing the cells with 1% formaldehyde. The cells were permeabilized with 1% NP-40 and incubated with 5% BSA to block unspecific antibody bonding. The cells were then incubated with γH2AX primary antibody followed by a secondary antibody. Mounting media containing DAPI was used before applying cover slips and sealing the samples. Cells were imaged on an Olympus IX71 trinocular inverted fluorescence phase contrast microscope with a 40× objective. The resulting images were analyzed by ImageJ, and the foci were counted."}}, "data": [{"compound": "O=C(NC(CO)CO)C1(C(=O)NC(CO)CO)C23c4c5c6c7c8c4-c4c2c2c9c%10c4C4%11c%12c-%10c%10c%13c%14c%12-c%12c(c-7c7c%15c%12C%14%12C(C(=O)NC(CO)CO)(C(=O)NC(CO)CO)C%12%14c%12c%16c%17c%18c(c%12-%15)C7%12C(C(=O)NC(CO)CO)(C(=O)NC(CO)CO)C6%12c6c-5c5c7c(c6-%18)C%176C(C(=O)NC(CO)CO)(C(=O)NC(CO)CO)C6%12c6c-7c(c-2c2c6-c6c%12c-%16c%14c-%13c6C%106C(C(=O)NC(CO)CO)(C(=O)NC(CO)CO)C926)C513)C84C%11(C(=O)NC(CO)CO)C(=O)NC(CO)CO", "note": "(stereo not shown) [C60-ser, C60-serinol]", "values": [{"measurement": "ROS (H2-DCFDA fluorescence)", "setting": "N2A cells [1]", "value": "significant reduction in ROS"}, {"measurement": "surviving fraction of cells vs control", "setting": "[2]", "value": "no difference in the surviving fraction of cells"}, {"measurement": "internal diameters of hollow hull aggregates", "setting": "[3]", "value": "40-1000 nm"}, {"measurement": "radiation-induced increase in respiratory capacity", "setting": "HepG2 cells", "value": "dampened and, in some cases, reduced to normal or slightly below normal levels"}, {"measurement": "γH2AX foci vs control", "setting": "N2A cells [4]; 100 μM 2 hours before 0.5 Gy proton radiation", "value": "trend towards reduction in total foci formed, but it was not statistically significant"}, {"measurement": "γH2AX foci vs control", "setting": "N2A cells [4]; 100 μM 2 hours before 1 Gy proton radiation", "value": "significant decrease in the number of foci"}, {"measurement": "γH2AX foci vs control", "setting": "N2A cells [4]; 100 μM 2 hours, absence of radiation", "value": "no significant different in foci expression"}]}]}
